ChEMBL document CHEMBL1201862, “PubChem BioAssay data set” (2004)
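Assay format: 96-well plates, 48-hour exposure. At the GI50, growth is halved.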 Calls of active or inactive are those of the source. Rule as the data show it: active = GI50 up to about 1.1 µM and inactive = higher.

Tests used:
Assay in all cases: NCI anticancer screen, dose series, 48 h
NCI-H522 = tested on: NCI-H522
SK-MEL-28 = tested on: SK-MEL-28
CCRF-CEM = tested on: CCRF-CEM
HCT-15 = tested on: HCT-15
HT-29 = tested on: HT-29
SN12C = tested on: SN12C
OVCAR-4 = tested on: OVCAR-4
LOX IMVI = tested on: LOX IMVI
SW-620 = tested on: SW-620
SNB-19 = tested on: SNB-19
SR = tested on: SR
RXF 393 = tested on: RXF 393
M19-MEL = tested on: M19-MEL
M14 = tested on: M14
COLO 205 = tested on: COLO 205
OVCAR-5 = tested on: OVCAR-5
UACC-257 = tested on: UACC-257
Malme-3M = tested on: Malme-3M
UO-31 = tested on: UO-31
MOLT-4 = tested on: MOLT-4
UACC-62 = tested on: UACC-62
SNB-75 = tested on: SNB-75
RPMI-8226 = tested on: RPMI-8226
A498 = tested on: A498
DMS-114 = tested on: DMS-114
KM12 = tested on: KM12
SK-OV-3 = tested on: SK-OV-3
CAKI-1 = tested on: CAKI-1
DMS-273 = tested on: DMS-273
TK-10 = tested on: TK-10
IGROV-1 = tested on: IGROV-1
OVCAR-8 = tested on: OVCAR-8
786-0 = tested on: 786-0
HOP-62 = tested on: HOP-62
U-251 = tested on: U-251
LXFL 529 = tested on: LXFL 529
ACHN = tested on: ACHN
SK-MEL-2 = tested on: SK-MEL-2
NCI-H23 = tested on: NCI-H23
HL-60 = tested on: HL-60
SF-295 = tested on: SF-295
HCC 2998 = tested on: HCC 2998
EKVX = tested on: EKVX
HOP-18 = tested on: HOP-18
NCI-H460 = tested on: NCI-H460
DLD-1 = tested on: DLD-1
XF498 = tested on: XF498
K562 = tested on: K562
SF-268 = tested on: SF-268
SNB-78 = tested on: SNB-78
OVCAR-3 = tested on: OVCAR-3
HOP-92 = tested on: HOP-92
A549 = tested on: A549
RXF 631 = tested on: RXF 631
SF-539 = tested on: SF-539
HCT-116 = tested on: HCT-116
KM-20L2 = tested on: KM-20L2
SK-MEL-5 = tested on: SK-MEL-5

SMILES: C=C1C(=O)OC2C1C(OC(=O)/C(C)=C\C)CC1(CO1)C1C(O)C=C(C)C21O (stereo not drawn)
- GI50 (NCI-H522): 0.942 µM (active)
- GI50 (SK-MEL-28): 2.93 µM (inactive)
- GI50 (CCRF-CEM): 2.65 µM (inactive)
- GI50 (HCT-15): 2.81 µM
- GI50 (HT-29): 13 µM (inactive)
- GI50 (SN12C): 3.27 µM (inactive)
- GI50 (OVCAR-4): 7.78 µM (inactive)
- GI50 (LOX IMVI): 14.4 µM (inactive)
- GI50 (SW-620): 1.58 µM (inactive)
- GI50 (SNB-19): 20.7 µM (inactive)
- GI50 (SR): 4.83 µM (inactive)
- GI50 (RXF 393): 2.73 µM (inactive)
- GI50 (M19-MEL): 6.24 µM (inactive)
- GI50 (M14): 2.63 µM (inactive)
- GI50 (COLO 205): 1.17 µM (inactive)
- GI50 (OVCAR-5): 19.7 µM (inactive)
- GI50 (UACC-257): 9.73 µM (inactive)
- GI50 (Malme-3M): 2.74 µM (inactive)
- GI50 (UO-31): 10.3 µM (inactive)
- GI50 (MOLT-4): 2 µM (inactive)
- GI50 (UACC-62): 1.74 µM (inactive)
- GI50 (SNB-75): 10.6 µM (inactive)
- GI50 (RPMI-8226): 4.56 µM (inactive)
- GI50 (A498): 5.02 µM (inactive)
- GI50 (DMS-114): 3.19 µM (inactive)
- GI50 (KM12): 11.5 µM (inactive)
- GI50 (SK-OV-3): 16.7 µM (inactive)
- GI50 (CAKI-1): 2.04 µM (inactive)
- GI50 (DMS-273): 6.46 µM (inactive)
- GI50 (TK-10): 3.44 µM (inactive)
- GI50 (IGROV-1): 14.5 µM (inactive)
- GI50 (OVCAR-8): 2.67 µM (inactive)
- GI50 (786-0): 2.96 µM (inactive)
- GI50 (HOP-62): 23.6 µM (inactive)
- GI50 (U-251): 12.2 µM (inactive)
- GI50 (LXFL 529): 1.59 µM (inactive)
- GI50 (ACHN): 3.16 µM (inactive)
- GI50 (SK-MEL-2): 3.72 µM (inactive)
- GI50 (NCI-H23): 7.19 µM (inactive)
- GI50 (HL-60): 3.04 µM (inactive)
- GI50 (SF-295): 20.8 µM (inactive)
- GI50 (HCC 2998): 4.63 µM (inactive)
- GI50 (EKVX): 12.8 µM (inactive)
- GI50 (HOP-18): 10.9 µM (inactive)
- GI50 (NCI-H460): 14.3 µM (inactive)
- GI50 (DLD-1): 2.33 µM (inactive)
- GI50 (XF498): 12.7 µM (inactive)
- GI50 (K562): 4.72 µM (inactive)
- GI50 (SF-268): 2.64 µM (inactive)
- GI50 (SNB-78): 9.53 µM (inactive)
- GI50 (OVCAR-3): 3.77 µM (inactive)
- GI50 (HOP-92): 10.7 µM (inactive)
- GI50 (A549): 20.6 µM (inactive)
- GI50 (RXF 631): 3.52 µM (inactive)
- GI50 (SF-539): 2.61 µM (inactive)
- GI50 (HCT-116): 1.53 µM (inactive)
- GI50 (KM-20L2): 3.19 µM (inactive)
- GI50 (SK-MEL-5): 4.28 µM (inactive)
